Laboratory results taken from ChEMBL document CHEMBL1139242, “Peptide deformylase inhibitors of Mycobacterium tuberculosis: synthesis, structural investigations, and biological results” (Bioorg Med Chem Lett, 2008).
In brackets after ≈: the same amount, converted by molar mass.

Test system: Mycobacterium tuberculosis
Test: Antimicrobial activity against Mycobacterium bovis BCG after 4 days by alamar blue assay
Type: functional
Conditions: variant bovis BCG, 96 h

`CCCC[C@H](CN(O)C=O)C(=O)N1CCC[C@H]1c1nc2ccccc2o1` and `CCCCC[C@H](CN(O)C=O)C(=O)N1CCC[C@H]1c1nc2ccccc2o1` are the same in MIC: 0.6 µg/mL (≈ 1.67 µM) for the first, 0.6 µg/mL (≈ 1.61 µM) for the second.

Going from `O=CN(O)C[C@@H](CC1CC1)C(=O)N1CCC[C@H]1c1nc2ccccc2o1` to `CCC[C@H](CN(O)C=O)C(=O)N1CCC[C@H]1c1nc2ccccc2o1`, the MIC rises from 1.2 µg/mL (≈ 3.36 µM) to 4.5 µg/mL (≈ 13 µM) (3.8-fold).

Compared with `CCCC[C@H](CC(=O)O)C(=O)N1CCC[C@H]1c1nc2ccccc2o1`, `CCCC[C@H](C(=O)NO)C(=O)N1CCC[C@H]1c1nc2ccccc2o1` is 2-fold lower in MIC: 9 µg/mL (≈ 26.1 µM) for the first, 4.5 µg/mL (≈ 13 µM) for the second.

`O=CN(O)C[C@@H](Cc1ccccc1)C(=O)N1CCC[C@H]1c1nc2ccccc2o1` and `O=CN(O)C[C@@H](Cc1ccccc1)C(=O)N1CCC[C@H]1c1nc2ccccc2[nH]1` are the same in MIC: 9 µg/mL (≈ 22.9 µM) for the first, 9 µg/mL (≈ 22.9 µM) for the second.

Compared with `CCCC[C@H](CC(=O)O)C(=O)N1CCC[C@H]1c1nc2ccccc2[nH]1`, `CCCC[C@H](CN(O)C=O)C(=O)N1CCC[C@H]1c1nc2ccccc2[nH]1` is 15-fold lower in MIC: 9 µg/mL (≈ 26.2 µM) for the first, 0.6 µg/mL (≈ 1.67 µM) for the second.

First: CCCCC[C@H](CN(O)C=O)C(=O)N1CCC[C@H]1c1nc2ccccc2[nH]1
Second: CCC[C@H](CN(O)C=O)C(=O)N1CCC[C@H]1c1nc2ccccc2[nH]1
The MIC of the first is 7.5-fold lower: 1.2 µg/mL (≈ 3.22 µM) for the first, 9 µg/mL (≈ 26.1 µM) for the second.

Going from `O=CN(O)C[C@@H](CC1CC1)C(=O)N1CCC[C@H]1c1nc2ccccc2[nH]1` to `CCCC[C@H](C(=O)NO)C(=O)N1CCC[C@H]1c1nc2ccccc2[nH]1`, the MIC rises from 1.2 µg/mL (≈ 3.37 µM) to 4.5 µg/mL (≈ 13.1 µM) (3.8-fold).
